Experimental data taken from patent US20250009742A1 (priority 2021, published 2025).

Columns and labels:
[1] = test system: intracellular HBV DNA; test: Real-time PCR for intracellular HBV DNA in HepAD38 cells; format: cell-based; conditions: Hepatitis B virus, HePAD38, 65 h, 65 hours treatment
[2] = Cell viability assay (EZ-Cytox), cytotoxicity; format: cell-based; conditions: human, HepAD38 cells; for viability at 65 h, 100 µM: read-out: Cytotoxicity % Livability (@100 μM)
Protocol: HepAD38 cells were cultured for 2 days in Dulbecco's Modified Eagle's medium (Welgene, LM001-05) supplemented with 10% FBS without tetracycline. […] After 65 hours of treatment, viability was measured using EZ-Cytox cell viability assay kit (Daeil Lab Service) according to the manufacturer's instructions. The absorbance was measured at 450 nm using a spectrophotometer (Spark, Tecan).

With `COc1cc(N(Cc2n[nH]c3c2COCC3)C(=O)Nc2ccc(F)c(Cl)c2)ccn1` [Example 73, 3-(3-chloro-4-fluorophenyl)-1-(2-methoxypyridin-4-yl)-1-((1,4,6,7-tetrahydropyrano[4,3-c]pyrazol-3-yl)methyl)urea] the IC50 [1] was 0.019 µM, the CC50 at 65 h [2] was over 100 µM and the viability at 65 h, 100 µM [2] was 96.6%.
In the case of `COc1cc(N(Cc2cc(C(F)(F)F)[nH]n2)C(=O)Nc2ccc(F)c(Cl)c2)ccn1` [Example 74, 3-(3-chloro-4-fluorophenyl)-1-(2-methoxypyridin-4-yl)-1-((5-(trifluoromethyl)-1H-pyrazol-3-yl)methyl)urea], the IC50 [1] is reported as 0.022 µM, the CC50 at 65 h [2] is reported as over 100 µM and the viability at 65 h, 100 µM [2] is reported as 55.6%.
Work on `COc1cncc(N(Cc2n[nH]c3c2COCC3)C(=O)Nc2ccc(F)c(Cl)c2)c1` [Example 75, 3-(3-chloro-4-fluorophenyl)-1-(5-methoxypyridin-3-yl)-1-((1,4,6,7-tetrahydropyrano[4,3-c]pyrazol-3-yl)methyl)urea] yielded an IC50 [1] of 0.036 µM, a CC50 at 65 h [2] of over 100 µM and a viability at 65 h, 100 µM [2] of 92.1%.
For `COc1cncc(N(Cc2cc(C(F)F)[nH]n2)C(=O)Nc2ccc(F)c(Cl)c2)c1` [Example 77, 3-(3-chloro-4-fluorophenyl)-1-((5-(difluoromethyl)-1H-pyrazol-3-yl)methyl)-1-(5-methoxypyridin-3-yl)urea], the IC50 [1] was 0.036 µM, the CC50 at 65 h [2] was over 100 µM and the viability at 65 h, 100 µM [2] was 86.7%.
`COc1ccc(N(Cc2n[nH]c(C(F)(F)F)c2C)C(=O)Nc2ccc(F)c(Cl)c2)cn1` [Example 78, 3-(3-chloro-4-fluorophenyl)-1-(6-methoxypyridin-3-yl)-1-((4-methyl-5-(trifluoromethyl)-1H-pyrazol-3-yl)methyl)urea] gave an IC50 [1] of 0.0303 µM, a CC50 at 65 h [2] of over 100 µM and a viability at 65 h, 100 µM [2] of 94%.
`COc1ncc(N(Cc2cc(C(F)(F)F)[nH]n2)C(=O)Nc2ccc(F)c(Cl)c2)cn1` [Example 80, 3-(3-chloro-4-fluorophenyl)-1-(2-methoxypyrimidin-5-yl)-1-((5-(trifluoromethyl)-1H-pyrazol-3-yl)methyl)urea] showed an IC50 [1] of 0.019 µM, a CC50 at 65 h [2] of 88.4 µM and a viability at 65 h, 100 µM [2] of 21.4%.
Compound `COCc1c(CN(C(=O)Nc2ccc(F)c(Cl)c2)c2ccc(OC)nc2)n[nH]c1C(F)F` [Example 82, 3-(3-chloro-4-fluorophenyl)-1-((5-(difluoromethyl)-4-(methoxymethyl)-1H-pyrazol-3-yl)methyl)-1-(6-methoxypyridin-3-yl)urea] has an IC50 [1] of over 1.1 µM, a CC50 at 65 h [2] of over 100 µM and a viability at 65 h, 100 µM [2] of 85.8%.
`CCOC=Cc1c(CN(C(=O)Nc2ccc(F)c(Cl)c2)c2ccc(OC)nc2)n[nH]c1C(F)(F)F` [Example 83, 3-(3-chloro-4-fluorophenyl)-1-((4-(2-ethoxyvinyl)-5-(trifluoromethyl)-1H-pyrazol-3-yl)methyl)-1-(6-methoxypyridin-3-yl)urea] showed an IC50 [1] of over 1.1 µM, a CC50 at 65 h [2] of over 100 µM and a viability at 65 h, 100 µM [2] of 95.1%.
In the case of `COCCc1c(CN(C(=O)Nc2ccc(F)c(Cl)c2)c2ccc(OC)nc2)n[nH]c1C(F)F` [Example 88, 3-(3-chloro-4-fluorophenyl)-1-((5-(difluoromethyl)-4-(2-methoxyethyl)-1H-pyrazol-3-yl)methyl)-1-(6-methoxypyridin-3-yl)urea], the IC50 [1] is reported as over 1.1 µM, the CC50 at 65 h [2] is reported as over 100 µM and the viability at 65 h, 100 µM [2] is reported as 74.5%.
For `COc1ncc(N(Cc2cc(C(F)(F)F)[nH]n2)C(=O)Nc2cc(Cl)c(F)cn2)cn1` [Example 89, 3-(4-chloro-5-fluoropyridin-2-yl)-1-(2-methoxypyrimidin-5-yl)-1-((5-(trifluoromethyl)-1H-pyrazol-3-yl)methyl)urea], the IC50 [1] was 0.05 µM, the CC50 at 65 h [2] was over 100 µM and the viability at 65 h, 100 µM [2] was 96%.
`COc1ncc(N(Cc2n[nH]c(C(F)F)c2C(C)(C)O)C(=O)Nc2ccc(F)c(Cl)c2)cn1` [Example 92, 3-(3-chloro-4-fluorophenyl)-1-((5-(difluoromethyl)-4-(2-hydroxypropan-2-yl)-1H-pyrazol-3-yl)methyl)-1-(2-methoxypyrimidin-5-yl)urea] gave an IC50 [1] of over 1.1 µM and a CC50 at 65 h [2] of over 100 µM.
`C=C(C)c1c(CN(C(=O)Nc2ccc(F)c(Cl)c2)c2cnc(OC)nc2)n[nH]c1C(F)F` [Example 93, 3-(3-chloro-4-fluorophenyl)-1-((5-(difluoromethyl)-4-(prop-1-en-2-yl)-1H-pyrazol-3-yl)methyl)-1-(2-methoxypyrimidin-5-yl)urea] showed an IC50 [1] of 0.32 µM and a CC50 at 65 h [2] of over 100 µM.
For `COc1cc(N(Cc2cc(C(F)(F)F)[nH]n2)C(=O)Nc2ccc(F)c(Cl)c2)cnn1` [Example 94, 3-(3-chloro-4-fluorophenyl)-1-(6-methoxypyridazin-4-yl)-1-((5-(trifluoromethyl)-1H-pyrazol-3-yl)methyl)urea], the IC50 [1] was 0.26 µM, the CC50 at 65 h [2] was 64.4 µM and the viability at 65 h, 100 µM [2] was 4.8%.
For `COc1ncc(N(Cc2n[nH]c(C(F)(F)F)c2CC(C)O)C(=O)Nc2ccc(F)c(Cl)c2)cn1` (stereo not shown) [Example 95, 3-(3-chloro-4-fluorophenyl)-1-((4-(2-hydroxypropyl)-5-(trifluoromethyl)-1H-pyrazol-3-yl)methyl)-1-(2-methoxypyrimidin-5-yl)urea], the IC50 [1] was 0.83 µM, the CC50 at 65 h [2] was 62.2 µM and the viability at 65 h, 100 µM [2] was 29.9%.
Compound `COc1ccc(N(Cc2cc(C(F)(F)F)[nH]n2)C(=O)Nc2ccc(F)c(Cl)c2)nn1` [Example 96, 3-(3-chloro-4-fluorophenyl)-1-(6-methoxypyridazin-3-yl)-1-((5-(trifluoromethyl)-1H-pyrazol-3-yl)methyl)urea] has an IC50 [1] of over 1.1 µM, a CC50 at 65 h [2] of over 100 µM and a viability at 65 h, 100 µM [2] of 93.4%.
`COc1ccc(N(Cc2cc(C(F)F)[nH]n2)C(=O)Nc2ccc(F)c(Cl)c2)nn1` [Example 97, 3-(3-chloro-4-fluorophenyl)-1-((5-(difluoromethyl)-1H-pyrazol-3-yl)methyl)-1-(6-methoxypyridazin-3-yl)urea] showed an IC50 [1] of over 1.1 µM, a CC50 at 65 h [2] of over 100 µM and a viability at 65 h, 100 µM [2] of 86.2%.
For `COc1cc(N(Cc2cc(C(F)F)[nH]n2)C(=O)Nc2ccc(F)c(Cl)c2)cnn1` [Example 99, 3-(3-chloro-4-fluorophenyl)-1-((5-(difluoromethyl)-1H-pyrazol-3-yl)methyl)-1-(6-methoxypyridazin-4-yl)urea], the IC50 [1] was 0.89 µM, the CC50 at 65 h [2] was over 100 µM and the viability at 65 h, 100 µM [2] was 83.4%.
For `COc1ncc(N(Cc2n[nH]c(C(F)(F)F)c2C(C)(C)O)C(=O)Nc2ccc(F)c(Cl)c2)cn1` [Example 102, 3-(3-chloro-4-fluorophenyl)-1-((4-(2-hydroxypropan-2-yl)-5-(trifluoromethyl)-1H-pyrazol-3-yl)methyl)-1-(2-methoxypyrimidin-5-yl)urea], the IC50 [1] was over 1.1 µM, the CC50 at 65 h [2] was over 66 µM and the viability at 65 h, 100 µM [2] was 3.8%.
`COC12CC(N(Cc3cc(C(F)(F)F)[nH]n3)C(=O)Nc3ccc(F)c(Cl)c3)(C1)C2` [Example 105, 3-(3-chloro-4-fluorophenyl)-1-(3-methoxybicyclo[1.1.1]pentan-1-yl)-1-((5-(trifluoromethyl)-1H-pyrazol-3-yl)methyl)urea] gave an IC50 [1] of 0.034 µM, a CC50 at 65 h [2] of 55.8 µM and a viability at 65 h, 100 µM [2] of 3.5%.
With `CC(C)(O)c1cc(N(Cc2n[nH]c3c2CCCO3)C(=O)Nc2ccc(F)c(Cl)c2)on1` [Example 109, 3-(3-chloro-4-fluorophenyl)-1-(3-(2-hydroxypropan-2-yl)isoxazol-5-yl)-1-((1,4,5,6-tetrahydropyrano[2,3-c]pyrazol-3-yl)methyl)urea] the IC50 [1] was 0.15 µM, the CC50 at 65 h [2] was over 100 µM and the viability at 65 h, 100 µM [2] was 82%.
In the case of `CC(C)(O)c1ccc(N(Cc2n[nH]c3c2CCCO3)C(=O)Nc2ccc(F)c(Cl)c2)cn1` [Example 110, 3-(3-chloro-4-fluorophenyl)-1-(6-(2-hydroxypropan-2-yl)pyridin-3-yl)-1-((1,4,5,6-tetrahydropyrano[2,3-c]pyrazol-3-yl)methyl)urea], the IC50 [1] is reported as over 1.1 µM and the CC50 at 65 h [2] is reported as over 100 µM.
In the case of `CC(C)(O)c1ccc(N(Cc2n[nH]c3c2CCOC3)C(=O)Nc2ccc(F)c(Cl)c2)cn1` [Example 111, 3-(3-chloro-4-fluorophenyl)-1-(6-(2-hydroxypropan-2-yl)pyridin-3-yl)-1-((1,4,5,7-tetrahydropyrano[3,4-c]pyrazol-3-yl)methyl)urea], the IC50 [1] is reported as over 1.1 µM and the CC50 at 65 h [2] is reported as over 100 µM.
With `CC(C)(O)c1cc(N(Cc2n[nH]c3c2CCOC3)C(=O)Nc2ccc(F)c(Cl)c2)ccn1` [Example 112, 3-(3-chloro-4-fluorophenyl)-1-(2-(2-hydroxypropan-2-yl)pyridin-4-yl)-1-((1,4,5,7-tetrahydropyrano[3,4-c]pyrazol-3-yl)methyl)urea] the IC50 [1] was over 1.1 µM and the CC50 at 65 h [2] was over 66 µM.
`CC(C)(O)c1cc(N(Cc2n[nH]c3c2CCCO3)C(=O)Nc2ccc(F)c(Cl)c2)ccn1` [Example 113, 3-(3-chloro-4-fluorophenyl)-1-(2-(2-hydroxypropan-2-yl)pyridin-4-yl)-1-((1,4,5,6-tetrahydropyrano[2,3-c]pyrazol-3-yl)methyl)urea] gave an IC50 [1] of over 1.1 µM, a CC50 at 65 h [2] of over 100 µM and a viability at 65 h, 100 µM [2] of 102%.
With `CC(C)(O)c1cc(N(Cc2n[nH]c3c2CCOC3)C(=O)Nc2ccc(F)c(Cl)c2)on1` [Example 115, 3-(3-chloro-4-fluorophenyl)-1-(3-(2-hydroxypropan-2-yl)isoxazol-5-yl)-1-((1,4,5,7-tetrahydropyrano[3,4-c]pyrazol-3-yl)methyl)urea] the IC50 [1] was over 1.1 µM, the CC50 at 65 h [2] was over 100 µM and the viability at 65 h, 100 µM [2] was 84.1%.
For `COc1cc(N(Cc2cc(C(F)(F)F)[nH]n2)C(=O)Nc2ccc(F)c(Cl)c2)cnc1C#N` [Example 118, 3-(3-chloro-4-fluorophenyl)-1-(6-cyano-5-methoxypyridin-3-yl)-1-((5-(trifluoromethyl)-1H-pyrazol-3-yl)methyl)urea], the IC50 [1] was over 1.1 µM, the CC50 at 65 h [2] was under 50 µM and the viability at 65 h, 100 µM [2] was 31.3%.
